From patent publication US20160138077A1, “MONITORING AND ASSESSING DEACETYLASE ENZYME ACTIVITY” (THE GENERAL HOSPITAL CORPORATION, priority 2013, published 2016)

Assays:
Sirtuin 3 = target: T1, Sirtuin 3 (Homo sapiens, UniProt Q9NTG7); test: LCMS assay of sirtuin enzymatic action on HP-1; type: biochemical; details: Sirtuin 3, −SAHA; 5 μM HP-1, 12 hours at 37° C.
T1 construct: purchased Cayman Chemicals
T1 sequence (Q9NTG7 1-399): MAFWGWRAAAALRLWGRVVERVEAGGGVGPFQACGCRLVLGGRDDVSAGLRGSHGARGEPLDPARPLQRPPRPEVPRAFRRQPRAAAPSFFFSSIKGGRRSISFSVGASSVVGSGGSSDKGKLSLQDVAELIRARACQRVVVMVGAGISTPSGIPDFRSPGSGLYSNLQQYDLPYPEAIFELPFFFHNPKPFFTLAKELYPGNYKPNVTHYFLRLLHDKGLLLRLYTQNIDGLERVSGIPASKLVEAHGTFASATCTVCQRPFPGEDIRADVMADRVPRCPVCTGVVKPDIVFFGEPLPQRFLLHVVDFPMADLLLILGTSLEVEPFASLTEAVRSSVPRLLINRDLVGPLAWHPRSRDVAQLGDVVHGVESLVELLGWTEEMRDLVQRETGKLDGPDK
Description: (§1) The enzymatic cleavage of HP-1 was analyzed by performing LCMS assays with sirtuin 1 and 3 (Cayman Chemicals) and the proteases chymotrypsin (Sigma-Aldrich), cathepsin (EMD Millipore), and pepsin* (Sigma-Aldrich). Solutions containing (i) vehicle with DMSO in HDAC buffer, (ii) 5 μM HP-1 in HDAC buffer, and (iii) 5 μM HP-1 and the enzyme in HDAC buffer were incubated for 12 hours at 37° C. Following incubation, a 20 μL aliquot of supernatant from each sample was analyzed by LCMS. Deacetylation of HP-1 was investigated by screening for the DHP-1 (M+H)^+ ion following positive electrospray ionization. All assay samples were analyzed in triplicate. […]
(§2) HP-1 was not altered by sirtuins 1 and 3 or the proteases chymotrypsin, cathepsin and pepsin, as determined by LCMS. […] For Cathepsin B, the cleavage of the enzyme substrate, z-RR-pNA (Santa Cruz Biotechnology, Dallas, Tex.) was monitored using a Wallac EnVision 2103 Multilabel fluorescence plate reader (PerkinElmer, Waltham, Mass.) with a 405 nm excitation filter, a 406 nm emission filter, and a gain of 150. The cleavage of the pepsin substrate, Ac-Phe-Tyr-OH (Chem-Impex Inc.), was monitored by LCMS at pH 4. […]

Sirtuin 1 = target: T2, Sirtuin 1 (Homo sapiens, UniProt Q96EB6); test: LCMS assay of sirtuin enzymatic action on HP-1; type: biochemical; details: Sirtuin 1, −SAHA; 5 μM HP-1, 12 hours at 37° C.
T2 construct: purchased Cayman Chemicals
T2 sequence (Q96EB6 1-747): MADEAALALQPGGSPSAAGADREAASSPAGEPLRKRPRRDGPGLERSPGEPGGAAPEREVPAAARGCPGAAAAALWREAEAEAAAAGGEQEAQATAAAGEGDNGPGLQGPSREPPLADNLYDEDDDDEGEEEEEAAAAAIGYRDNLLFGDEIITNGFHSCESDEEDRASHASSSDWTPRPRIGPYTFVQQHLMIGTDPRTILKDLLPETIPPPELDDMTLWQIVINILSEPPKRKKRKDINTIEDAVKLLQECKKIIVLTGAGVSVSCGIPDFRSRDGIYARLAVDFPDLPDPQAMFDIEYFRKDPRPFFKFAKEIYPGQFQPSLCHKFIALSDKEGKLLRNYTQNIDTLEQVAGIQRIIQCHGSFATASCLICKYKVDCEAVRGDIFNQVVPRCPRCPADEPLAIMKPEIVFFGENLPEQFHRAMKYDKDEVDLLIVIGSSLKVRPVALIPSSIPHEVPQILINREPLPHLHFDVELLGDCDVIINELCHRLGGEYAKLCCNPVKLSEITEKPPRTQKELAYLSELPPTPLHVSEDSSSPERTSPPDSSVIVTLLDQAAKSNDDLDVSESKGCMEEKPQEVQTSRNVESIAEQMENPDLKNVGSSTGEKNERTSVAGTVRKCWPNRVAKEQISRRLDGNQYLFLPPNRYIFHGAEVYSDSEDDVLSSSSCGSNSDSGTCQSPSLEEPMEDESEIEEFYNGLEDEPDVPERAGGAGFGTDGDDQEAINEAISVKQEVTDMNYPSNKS
Description: as §1, §2

CC(=O)NC=CCCCCNC(=O)CCCCCNc1ccc([N+](=O)[O-])c2nonc12 [HP-1]
% HP-1 to DHP-1 (Sirtuin 3): 0% | % HP-1 to DHP-1 (Sirtuin 1): 0%
